Measurements reported in US6207644A, “Peptide analogues containing a 7-membered lactam ring” (Zeneca Limited, priority 1996, dated 2001).

Key:
[1] = Aqueous stability of peptide in McIlvaine's buffer; type: physicochemical
Procedure: A typical procedure for measuring the stability of a peptide compound of the present invention is as follows, in which, to minimize microbial contamination and degradation, all equipment that is used to prepare peptide solutions is sterilized in an autoclave and all material transfers carried out in a Class II laminar flow cabinet. Approximately 20 ml of McIlvaine's citric acid-phosphate buffer solution at pH 3 or 7.6 containing 0.02% sodium azide is filtered into a 50 ml bottle using a sterile […] filter unit and a 20 ml syringe. Approximately 1.2 mg of peptide is accurately weighed in a capped vial. Using a sterile pipette tip, sufficient buffer solution is added to the peptide in the vial to give a peptide concentration of 0.1 mg/ml. The vial is capped and shaken to dissolve the peptide. Using a sterile pipette tip, aliquots of approximately 1 ml of the peptide solution are transferred to 10 HPLC vials, which are then capped. 5 vials are stored at -18 and 37° C. The area of the peptide peak for the solution is determined by HPLC using appropriate standards initially and after storage at -18 and 37° C. for 1, 2, 3 and 4 weeks, using a fresh vial at each time point with duplicate sample injections. The percentage of peptide remaining after storage at 37° C. at each time point is determined from the ratio of the area of the peptide peak at each time point to the initial area. […]

HLA-DR4Dw4 = biological target: T1, HLA-DR4Dw4 (Homo sapiens, UniProt P01903+P01911, A100K/A169T/F76Y/I96L/K127E/L162R/M171V/N62H/P40V/Q125Y/R42H/S133A/S149N/S66Y/V115G/V209L/W38E); experiment: Test A: purified HLA-DR peptide in vitro binding assay (or its variant)
T1 construct: made in house; host or cells: double-recombinant baculovirus in Sf21 insect cells (Test A), or the human JAH cell line (variant to Test A)
Procedure: Purified HLA-DR peptide in vitro binding assay. […]. At the end of the incubation period 100 μl of the incubate is transferred to Enzyme Linked ImmunoSorbant Assay (ELISA) plates (Nunc) previously coated with an anti-MHC antibody (L243-American Type Culture Collection (ATCC) HB55 as described in Lampson and Levy (1980) J. Immunol. 125, 293-299) at a concentration of 10 μg/ml for 1 hour at room temperature and blocked thereafter for 1 hour with 1% bovine serum albumin (BSA) in PBS and 0.05% Tween 20. […] The reaction is stopped by adding 2M sulphuric acid (10 μl per well) and the absorbance read at 450 nm to quantify the amount of peptide bound. The inhibitory activity of peptides is obtained by plotting absorbance against concentration. […]
To create the double-recombinant baculovirus, a cDNA encoding the β chain is cloned into the transfer vector pAcUW1 [Weyer, U; Knight, S & Possee, R D (1990) J. Gen. […] Double-recombinant viruses are detected by spotting insecT-cells, infected with randomly picked viruses from the transfection,onto membranes and reacting them with a monoclonal antibody e.g. L243 which specifically recognises the HLA-DR heterodimer. Binding of the antibody to Sf21 insecT-cells is detected using standard flow cytometry techniques, readily available in the literature. […]

[2] = Degradation of peptide on in vitro release from an extruded polymer depot; type: physicochemical; settings: in the form of a polymer depot formulation
Procedure: A solution of McIlvaine's citric acid-phosphate buffer solution at pH 7.6 containing 0.02% sodium azide, is filtered through a 0.22μ filter and stored at 4° C. Approximately 10 mg of extruded polymer depot containing peptide is placed in two small vials and 2 ml of the buffer solution added. The vials are then capped and stored in a water bath at 37° C. for a month. At suitable time points over a month, three 0.6 ml aliquots of release medium are removed from each vial and either analysed by HPLC or stored frozen in an HPLC vial at -18° C. prior to analysis by HPLC. 1.8 ml of the buffer solution is added to each vial containing the depot to replace the release medium that has been removed at each time point.
The average amount of intact peptide in the release medium at each time point is determined by HPLC using duplicate sample injections by comparing the area of the peptide peak in the release media with the area of the peptide peak from standard buffer solutions of peptide at known concentrations. The approximate average amount of peptide degradation products in the release media at each time point is determined by HPLC by comparing the area of additional new peaks in the release media with the area of the peptide peak from standard buffer solutions of peptide at known concentrations and assuming the extinction coefficient has not changed. […]

HLA-DR3 = experiment: Variant to Test A: peptide selectivity binding assay, HLA-DR3; set-up: species or system human; settings: no significant binding
Procedure: (§1) As a varient to test A, the ability of a peptide of the invention to bind to one or more HLA-DR molecules was assessed as follows:
(§2) The method used was a modification of that described by Gorga et al, 1987, J.Biol.Chem. 262, 16087-16094. Human HLA-DR antigens were purified from various cell lines by immunoaffinity chromatography. […] Protein content was determined by a Biorad protein assay and purity by SDS-PAGE electrophoresis.
(§3) 200 nM biotin-FHA307-320 in phosphate buffered saline (PBS) was incubated with either purified HLA-DR1, DR2, DR4Dw4, DR4Dw13 or DR4Dw14 (2-20 μg/ml) in V-well microtitre plates (Nunc) with or without inhibitor peptides in assay buffer (PBS, 0.01% NP40 (Sigma.)) For DR3 inhibition, 400 nM Biotin-Ahx-(D)Ala-Ala-Ala-Che-Ile-Ala-Ala-Ala-Thr-Leu-Lys-Ala-Ala-(D)Ala-OH (SEQ ID NO:25) was incubated with purified DR3 (20 μg/ml), and incubated as above. After 48 hours, the incubates were treated, and absorbance readings taken as described in Test A. The inhibitory activity of peptides, expressed as IC50 values, was calculating using Microcal Origin software on a PC.

[3] = Loss of peptide due to degradation on extrusion of polymer depot formulation; type: physicochemical; settings: in the form of a polymer depot formulation
Procedure: Typical procedures for measuring the level of degradation of a peptide compound of the present invention are as follows:
About 20 mg of peptide is accurately weighed and sufficient polymer (50/50% molar poly(D,L-lactic acid/glycolic acid) copolymer of approximate weight average molecular weight 20 kD and approximate polydispersity of 1.7 as determined by size exclusion chromatography relative to polystyrene standards) added to produce an approximate 20% w/w mixture. This is dissolved in anhydride-free glacial acetic acid to produce an approximate 10% w/v solution. The solution is freeze dried and the resulting freeze dried product is stored under vacuum prior to use.
About 100 mg of freeze dried material is loaded into the barrel of a small laboratory extruder and the plunger pushed down to consolidate the sample. […]
Each standard is filtered through a 5 μm Millex PTFE filter and an aliquot of filtrate, together with aliquots of the solutions A, analysed by HPLC using duplicate sample injections. The peptide content of the extruded polymer depot formulation of peptide is calculated from the concentration of peptide in solutions A, which is determined by comparing the area of the peptide peak in solutions A with the area of the peptide peak from the standard solutions.

HLA-DR2 = experiment: Variant to Test A: peptide selectivity binding assay, HLA-DR2; set-up: species or system human
Procedure: as §1, §2, §3

HLA-DR1 = experiment: Variant to Test A: peptide selectivity binding assay, HLA-DR1; set-up: species or system human
Procedure: as §1, §2, §3

BALB/C mice = experiment: Test C: peptide stimulated DTH (delayed type hypersensitivity) in BALB/C mice; type: in vivo; settings: osmotic mini-pump
Procedure: Peptide stimulated DTH (delayed type hypersensitivity) in BALB/C mice. […] Balb/c female mice (18-20 g), 5 per group, were immunised sub-cutaneously on the flank with 0.1 ml of an emulsion of ovalbumin (Sigma) (2 mg/ml in saline) mixed 1:1 (v/v) with complete Freunds adjurant (Sigma). Seven days later footpad thickness was detemined using a dual caliper micrometer followed by a challenge in one hind footpad with a 30 μl sub-plantar injection of 1% heat-aggregated ovalbumin protein in saline. Twenty-four hours after antigen challenge, footpads were measured and the DTH response calculated as the percentage increase in footpad thickness in the injected footpad compared to contralateral control. Inhibitors were adminstered by 3-day osmotic mini-pumps (Alzet) implanted 24 hours prior to antigen challenge at doses ranging from 10 mg/kg/day to 0.1 μg/kg/day. The degree of inhibition was calculated by substracting the value for swelling of inhibitor treated footpads from that of the vehicle dosed controls, dividing by the control value and multiplying by 100%.

C[C@H](NC(=O)CN1CCCC[C@H](NC(=O)[C@H](C)NC(=O)[C@H](C)NC(=O)[C@H](CCCNC(=N)N)NC(=O)CCCCc2ccccc2)C1=O)C(=O)N[C@@H](C)C(=O)N[C@@H](C)C(=O)Nc1ccc(CC(N)=O)cc1 [Example 1, Phv-Arg-Ala-Ala-IIb-Ala-Ala-Ala-Papa-NH2]
aqueous stability ([1]; pH3): good aqueous stability | aqueous stability ([1]; pH7.6): good aqueous stability | concentration showing significant binding to HLA-DR4Dw4 (HLA-DR4Dw4): ≤ 0.1 µM | degradation on release from depot formulation [2]: minimal degradation on release | IC50 (HLA-DR3): > 100 µM | loss due to degradation on extrusion [3]: minimal loss due to degradation on extrusion | binding to HLA-DR2 (HLA-DR2): significant binding | binding to HLA-DR1 (HLA-DR1): significant binding | dose at which active in Test C (BALB/C mice): < 0.1 mg/kg/day
